{
  "source": "patent US20250000987A1",
  "about": "“RETINOIC ACID COMPOUND, PHARMACEUTICAL COMPOSITION THEREOF AND USE THEREOF” (Mastery Biotech CO., LTD., priority 2022, published 2025)",
  "key": {"SARS-COV-2 PLpro": {"biological_target": "SARS-COV-2 PLpro (Severe acute respiratory syndrome coronavirus 2, UniProt P0DTD1)", "assay_type": "biochemical"}, "SARS-COV-2": {"test_system": "SARS-COV-2", "details": "Example 2; 0.35 mg/kg intranasally twice daily, 3-day treatment; versus isotretinoin and liposome-encapsulated isotretinoin; FIG. 3", "text": "Golden Syrian hamsters (aged 5-6 weeks old and having an average weight of about 100 g) were obtained from the National Laboratory Animal Center (Taipei, Taiwan). The hamsters were housed in an animal room under specific-pathogen-free (SPF) conditions commonly applied in the art. Furthermore, water and feed were provided ad libitum for all the hamsters.\nThe hamsters were infected with SARS-COV-2 (obtained from P3 Lab, the Genomics Research Center, Academia Sinica; WuHan wild type) in phosphate buffered saline (PBS) through intranasal inoculation at 1×10^4 plaque-forming units (PFU) on 12:00 PM so as to establish a SARS-COV-2 animal model.\nThe infected hamsters obtained as mentioned above were divided into the following four groups (n=5 per group): a control group (abbreviated as “Control”), two comparative groups (respectively abbreviated as “Comparative_1” and “Comparative_2”) and one experimental group (abbreviated as “Experimental_1”). […]\nAfter the 3-day treatment, the hamsters were sacrificed, and the lungs thereof were collected for live viral load measurement by TCID50 assay in Vero E6 cells. The virus titer was determined in terms of the 50% tissue culture infectious dose (TCID50) using the Reed-Muench method. […]\nThe experimental data were analyzed by Tukey's test so as to evaluate the differences between the groups. […]"}},
  "data": [
    {"compound": "CC1=C(/C=C/C(C)=C/C=C/C(C)=C\\C(=O)NCCCO[C@@H]2O[C@H](CO)[C@H](O)[C@H](O)[C@H]2O)C(C)(C)CCC1", "note": "[Galactose-modified isotretinoin, (2Z,4E,6E,8E)-3,7-dimethyl-N-(3-(((2R,3R,4S,5R,6R)-3,4,5-trihydroxy-6-(hydroxymethyl)tetrahydro-2H-pyran-2-yl)oxy)propyl)-9-(2,6,6-trimethylcyclohex-1-en-1-yl) nona-2,4,6,8-tetraenamide]", "values": [
      {"measurement": "Inhibition percentage (%)", "setting": "SARS-COV-2 PLpro; Example 1, 50 μM inhibiting agent, PLpro 0.9 μM, preincubation 30 minutes, 30° C., 300 seconds, mean±standard deviation", "result": "34.21 ± 0.17", "unit": "%"},
      {"measurement": "inhibiting the enzymatic activity of PLpro, comparison in words", "setting": "SARS-COV-2 PLpro; versus isotretinoin or the individual components, FIG. 2, FIG. 11", "result": "more effective than isotretinoin only"},
      {"measurement": "TCID50 (lung virus titer)", "setting": "SARS-COV-2", "result": "significantly lower"}
    ]}
  ]
}
